Results as given in ChEMBL document CHEMBL5543131, “Discovery of Highly Potent Solute Carrier 13 Member 5 (SLC13A5) Inhibitors for the Treatment of Hyperlipidemia” (J Med Chem, 2024).
Calls of active or inactive are those of the source.

Columns and labels:
[1] = system: AML12; assay: Effect on lipid accumulation in oleic and palmitic acid induced mouse AML12 cells assessed as decrease in total cholesterol level; format: functional, cell-based; conditions: dose 3-30 µM
[2] = molecular target: T1, Solute carrier family 13 member 2 (Homo sapiens) (UniProt Q13183); assay: Inhibition of NaDC1 (unknown origin) citrate transport activity
T1 sequence (whole entry): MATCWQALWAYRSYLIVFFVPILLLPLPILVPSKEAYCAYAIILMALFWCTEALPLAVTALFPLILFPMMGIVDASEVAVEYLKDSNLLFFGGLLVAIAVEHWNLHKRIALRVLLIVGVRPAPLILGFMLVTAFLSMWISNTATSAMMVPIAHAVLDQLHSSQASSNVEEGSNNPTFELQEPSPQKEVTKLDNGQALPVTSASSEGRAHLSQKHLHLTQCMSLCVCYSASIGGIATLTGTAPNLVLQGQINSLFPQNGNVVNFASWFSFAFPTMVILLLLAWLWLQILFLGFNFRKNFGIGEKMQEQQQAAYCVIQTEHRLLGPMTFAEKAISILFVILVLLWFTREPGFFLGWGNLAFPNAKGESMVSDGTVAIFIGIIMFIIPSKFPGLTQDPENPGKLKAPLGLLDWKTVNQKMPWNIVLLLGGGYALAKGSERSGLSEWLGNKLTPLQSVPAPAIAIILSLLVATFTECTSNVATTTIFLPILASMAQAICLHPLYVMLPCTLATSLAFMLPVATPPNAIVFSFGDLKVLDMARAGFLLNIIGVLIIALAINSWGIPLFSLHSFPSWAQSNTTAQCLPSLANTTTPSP

[3] = molecular target: T2, Na(+)/dicarboxylate cotransporter 3 (Homo sapiens) (UniProt Q8WWT9); assay: Inhibition of NaDC3 (unknown origin) citrate transport activity
T2 sequence (whole entry): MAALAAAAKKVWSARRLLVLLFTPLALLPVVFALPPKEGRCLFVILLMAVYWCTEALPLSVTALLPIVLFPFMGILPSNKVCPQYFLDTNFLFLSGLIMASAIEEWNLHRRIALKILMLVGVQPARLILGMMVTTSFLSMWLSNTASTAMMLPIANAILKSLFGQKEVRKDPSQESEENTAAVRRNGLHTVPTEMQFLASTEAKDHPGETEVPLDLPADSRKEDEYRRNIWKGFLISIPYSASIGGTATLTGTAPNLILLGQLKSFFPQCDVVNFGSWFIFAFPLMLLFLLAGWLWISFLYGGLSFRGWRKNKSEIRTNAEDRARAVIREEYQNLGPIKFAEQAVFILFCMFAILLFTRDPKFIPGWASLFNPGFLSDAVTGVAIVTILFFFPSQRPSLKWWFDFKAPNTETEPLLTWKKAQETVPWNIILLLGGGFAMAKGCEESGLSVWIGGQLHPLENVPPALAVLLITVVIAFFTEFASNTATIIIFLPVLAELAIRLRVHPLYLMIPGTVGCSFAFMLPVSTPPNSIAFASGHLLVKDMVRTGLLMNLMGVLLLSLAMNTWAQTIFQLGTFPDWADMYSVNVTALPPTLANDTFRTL

[4] = system: AML12; assay: Downregulation of ACLY mRNA expression in oleic and palmitic acid induced mouse AML12 cells by RT-qPCR analysis; format: functional, cell-based; conditions: dose 3-30 µM
[5] = system: AML12; assay: Lipid lowering effect on PCN-induced lipid accumulation in mouse AML12 cells assessed as decrease in ACC1 mRNA expression level at 3 to 30 uM preincubated with compound for 30 mins followed by PCN addition and measured after 24 hrs by RT-qPCR analysis; format: functional, cell-based; conditions: dose 3-30 µM, time 24.5 hrs
[6] = system: AML12; assay: Effect on SCL13A5 mRNA expression in PCN-induced mouse AML12 cells at 3 to 30 uM preincubated with compound for 30 mins followed by PCN addition and measured after 24 hrs by RT-qPCR analysis; format: functional, cell-based; conditions: dose 3-30 µM, time 24.5 hrs
[7] = system: AML12; assay: Lipid lowering effect on PCN-induced lipid accumulation in mouse AML12 cells assessed as decrease in ACLY mRNA expression level at 3 to 30 uM preincubated with compound for 30 mins followed by PCN addition and measured after 24 hrs by RT-qPCR analysis; format: functional, cell-based; conditions: dose 3-30 µM, time 24.5 hrs
[8] = system: Hepatocyte; assay: Lipid lowering effect on PCN-induced lipid accumulation in mouse Primary hepatocyte assessed as decrease in intracellular total cholesterol level; format: functional, cell-based; conditions: dose 3-30 µM
[9] = system: Hepatocyte; assay: Lipid lowering effect on PCN-induced lipid accumulation in mouse Primary hepatocyte assessed as decrease in HMGCR mRNA expression level at 3 to 30 uM by RT-qPCR analysis; format: functional, cell-based; conditions: dose 3-30 µM
[10] = system: HepG2; assay: Lipid lowering effect on oleic and palmitic acid induced lipid accumulation in human HepG2 cells assessed as decrease in intracellular triglyceride level; format: functional, cell-based; conditions: dose 3-30 µM
[11] = system: HepG2; assay: Lipid lowering effect on PCN-induced lipid accumulation in human HepG2 cells assessed as decrease in intracellular total cholesterol level; format: functional, cell-based; conditions: dose 3-30 µM
[12] = system: HepG2; assay: Lipid lowering effect on PCN-induced lipid accumulation in human HepG2 cells assessed as decrease in ACC1 mRNA expression level at 3 to 30 uM by RT-qPCR analysis; format: functional, cell-based; conditions: dose 3-30 µM
[13] = system: Mus musculus; assay: Lipid lowering activity in starvation-induced hyperlipidemic male C57BL/6J mouse model assessed as decrease in triglyceride level in liver at 10 to 30 mg/kg, ip starved for 48 hrs followed by compound administration and measured after 2 hrs; format: functional, organism-based; conditions: dose 10-30 mg/kg
[14] = system: Mus musculus; assay: Lipid lowering activity in starvation-induced hyperlipidemic male C57BL/6J mouse model assessed as decrease in NEFA level in liver at 10 to 30 mg/kg, ip starved for 48 hrs followed by compound administration and measured after 2 hrs; format: functional, organism-based; conditions: dose 10-30 mg/kg
[15] = system: Mus musculus; assay: In vivo inhibition of SLC13A5 in starvation-induced hyperlipidemic male C57BL/6J mouse model assessed as decrease in liver citrate level at 30 mg/kg, ip starved for 48 hrs followed by compound administration and measured after 2 hrs; format: functional, organism-based
[16] = system: Mus musculus; assay: Lipid lowering activity in starvation-induced hyperlipidemic male C57BL/6J mouse model assessed as downregulation of ACLY gene expression level starved for 48 hrs followed by oral administration of compound and measured after 2 hrs by RT-qPCR analysis; format: functional, organism-based; conditions: dose 10-30 mg/kg
[17] = system: Mus musculus; assay: Lipid lowering activity in PCN-induced hyperlipidemic male C57BL/6J mouse model assessed as decrease in FASN mRNA expression level preadministered intragastrically with compound for 15 to 30 mins followed by PCN administration and measured after 7 days by RT-qPCR analysis; format: functional, organism-based; conditions: dose 10-30 mg/kg, route ig, time 15-10110 min
[18] = system: Mus musculus; assay: Lipid lowering activity in PCN-induced hyperlipidemic male C57BL/6J mouse model assessed as decrease in HMGCR mRNA expression level preadministered intragastrically with compound for 15 to 30 mins followed by PCN administration and measured after 7 days by RT-qPCR analysis; format: functional, organism-based; conditions: dose 10-30 mg/kg, route ig, time 15-10110 min
[19] = system: Mus musculus; assay: Lipid lowering activity in starvation-induced hyperlipidemic male C57BL/6J mouse model assessed as decrease in number of lipid droplets in liver starved for 48 hrs followed by intraperitoneal administration of compound and measured after 2 hrs by Hematoxylin and eosin staining based analysis; format: functional, organism-based; conditions: dose 10-30 mg/kg, route ip
[20] = system: Mus musculus; assay: Lipid lowering activity in starvation-induced hyperlipidemic male C57BL/6J mouse model assessed as decrease in size of lipid droplets in liver starved for 48 hrs followed by intraperitoneal administration of compound and measured after 2 hrs by Hematoxylin and eosin staining based analysis; format: functional, organism-based; conditions: dose 10-30 mg/kg, route ip

O=C(O)CC(O)(CCc1ccc(-c2ccccc2)cc1)C(=O)O (stereo not given)
active: Activity [1] Dose-Dependent Effect | Activity [4] Dose-Dependent Effect | Activity [5] | Activity [7] | Activity [8] Dose-Dependent Effect | Activity [9] | Activity [10] Dose-Dependent Effect | Activity [11] Dose-Dependent Effect | Activity [12] | Activity [13] | Activity [14] | inhibition [15] | Activity [16] Dose-Dependent Effect | Activity [17] Dose-Dependent Effect | Activity [18] Dose-Dependent Effect | Activity [19] Dose-Dependent Effect | Activity [20] Dose-Dependent Effect
inactive: inhibition [2] | inhibition [3] | Activity [6]
